From the NIST ThermoML archive (doi:10.1021/je025566c)

Conditions: Liquid

CC(O)c1ccccc1 (centres undefined) [1-phenylethanol]
Conditions	vapor or sublimation pressure [kPa]
353.15 K	0.76
358.41 K	1.033
362.36 K	1.296
366.37 K	1.613
371.46 K	2.112
373.15 K	2.301
377.83 K	2.909
382.98 K	3.728
387.28 K	4.557
393.15 K	5.934
393.34 K	5.985
398.01 K	7.325

CCCCOC=O [butyl methanoate]
Conditions	vapor or sublimation pressure [kPa]
313.16 K	7.978
318.33 K	10.19
323.32 K	12.79
328.57 K	16.08
333.14 K	19.5
333.15 K	19.5
343.14 K	29.1
343.15 K	29.1
353.14 K	42.24
353.15 K	42.24
358.67 K	51.34

Oc1ccccc1 [phenol]
Conditions	vapor or sublimation pressure [kPa]
353.15 K	2.037
373.15 K	5.541
393.15 K	13.15

CCOCCO [2-ethoxyethan-1-ol]
Conditions	vapor or sublimation pressure [kPa]
333.15 K	5.3
343.15 K	8.646
353.15 K	13.62
